Laboratory results from US20230157952A1, “METHOD FOR IMPROVING THE STABILITY OF A PHARMACEUTICAL COMPOSITION COMPRISING A HIGH PENETRATION DRUG, AND THE PHARMACEUTICAL COMPOSITION OBTAINED THEREFROM” (Techfields Inc., priority 2020, published 2023).

Test: Effect of concentration on the stability of the solution (purity over time)
Settings: for Stability when the concentration is 0.1% or lower: in water at 25° C.; for Purity (%) at Day 3 / Purity (%) at Day 7 / Purity (%) at hr 0 / Purity (%) at hr 24 / Purity(%) at Day 14 / Purity(%) at Day 28: 25° C.

CCN(CC)CCOC(=O)CCCc1ccc(N(CCCl)CCCl)cc1.Cl [2-(diethylamino)ethyl 4-[bis(2-chloroethyl)amino]benzenebutyrate.HCl]
Stability when the concentration is 0.1% or lower: not stable

CCN(CC)CCOC(=O)CCCc1ccc(N(CCS(C)(=O)=O)CCS(C)(=O)=O)cc1.Cl [2-(diethylamino)ethyl 4-[bis(2-methylsulfonylethyl)amino]benzenebutyrate.HCl]
Stability when the concentration is 0.1% or lower: not stable

CCOC(=O)c1ccccc1 [Ethyl benzoate, reference compound]
Stability of common ester over the concentrations tested (0.01% to 10% (or higher) in 50% ethanol at 25° C.): very stable | Purity (%) at Day 3 (0.01 wt % in 50% ethanol): 97.4% | Purity (%) at Day 7 (0.01 wt % in 50% ethanol): 96.9% | Purity (%) at hr 0 (0.01 wt % in 50% ethanol): 97.8% | Purity (%) at hr 24 (0.01 wt % in 50% ethanol): 97.6% | Purity(%) at Day 14 (0.01 wt % in 50% ethanol): 96.1% | Purity(%) at Day 28 (0.01 wt % in 50% ethanol): 95.3% | Purity (%) at Day 3 (0.1 wt % in 50% ethanol): 97.6% | Purity (%) at Day 7 (0.1 wt % in 50% ethanol): 97.5% | Purity (%) at hr 0 (0.1 wt % in 50% ethanol): 97.9% | Purity (%) at hr 24 (0.1 wt % in 50% ethanol): 97.7% | Purity(%) at Day 14 (0.1 wt % in 50% ethanol): 97.2% | Purity(%) at Day 28 (0.1 wt % in 50% ethanol): 95.9% | Purity (%) at Day 3 (1 wt % in 50% ethanol): 97.7% | Purity (%) at Day 7 (1 wt % in 50% ethanol): 97.6% | Purity (%) at hr 0 (1 wt % in 50% ethanol): 98.0% | Purity (%) at hr 24 (1 wt % in 50% ethanol): 97.8% | Purity(%) at Day 14 (1 wt % in 50% ethanol): 97.5% | Purity(%) at Day 28 (1 wt % in 50% ethanol): 97.3% | Purity (%) at Day 3 (3 wt % in 50% ethanol): 97.8% | Purity (%) at Day 7 (3 wt % in 50% ethanol): 97.7% | Purity (%) at hr 0 (3 wt % in 50% ethanol): 97.9% | Purity (%) at hr 24 (3 wt % in 50% ethanol): 97.8% | Purity(%) at Day 14 (3 wt % in 50% ethanol): 97.6% | Purity(%) at Day 28 (3 wt % in 50% ethanol): 97.5% | Purity (%) at Day 3 (5 wt % in 50% ethanol): 97.8% | Purity (%) at Day 7 (5 wt % in 50% ethanol): 97.7% | Purity (%) at hr 0 (5 wt % in 50% ethanol): 98.0% | Purity (%) at hr 24 (5 wt % in 50% ethanol): 97.8% | Purity(%) at Day 14 (5 wt % in 50% ethanol): 97.6% | Purity(%) at Day 28 (5 wt % in 50% ethanol): 97.6% | Purity (%) at Day 3 (10 wt % in 50% ethanol): 97.8% | Purity (%) at Day 7 (10 wt % in 50% ethanol): 97.8% | Purity (%) at hr 0 (10 wt % in 50% ethanol): 97.9% | Purity (%) at hr 24 (10 wt % in 50% ethanol): 97.8% | Purity(%) at Day 14 (10 wt % in 50% ethanol): 97.7% | Purity(%) at Day 28 (10 wt % in 50% ethanol): 97.6%
